Source: patent US12312356B2, “Anthelmintic heterocyclic compounds” (Boehringer Ingelheim Vetmedica GmbH, priority 2020, dated 2025)

Legend:
[1] = test system: microfilariae of Dirofilaria immitis; test: Screening method to test activity against microfilaria of Dirofilaria immitis (motility, dose response); assay type: cell-based; settings: 72 h, read-out: EC50 value (motility of the microfilaria)
[2] = test system: L4 stage Dirofilaria immitis worms; test: Screening method to test activity against L4 stage larvae of Dirofilaria immitis (motility, dose response); assay type: cell-based; settings: 72 h, read-out: EC50 value (motility of L4 larvae)

`Cc1nc2c(C(C)C)c(C(=O)N[C@H]3CCOc4ccccc43)cnn2c1-c1cc(F)cc(F)c1` [Compound 175, 3-(3,5-difluorophenyl)-N-[(4S)-3,4-dihydro-2H-1-benzopyran-4-yl]-8-isopropyl-2-methylimidazo[1,2-b]pyridazine-7-carboxamide] was tested, and the EC50 [1] was 1 to 10 nM and the EC50 [2] was 1 to 10 nM.
`Cc1nc2c(C(C)C)c(C(=O)N[C@H]3CCOc4ccccc43)cnn2c1-c1cc(Cl)cc(Cl)c1` [Compound 271, 3-(3,5-dichlorophenyl)-N-[(4S)-3,4-dihydro-2H-1-benzopyran-4-yl]-8-isopropyl-2-methylimidazo[1,2-b]pyridazine-7-carboxamide] was tested, and the EC50 [1] was 1 to 10 nM and the EC50 [2] was less than 1 nM.
For `Cc1nc2c(C(C)(C)F)c(C(=O)N[C@H]3CCOc4ccccc43)cnn2c1-c1cc(F)cc(F)c1` [Compound 277, 3-(3,5-difluorophenyl)-N-[(4S)-3,4-dihydro-2H-1-benzopyran-4-yl]-8-(2-fluoropropan-2-yl)-2-methylimidazo[1,2-b]pyridazine-7-carboxamide], the EC50 [1] was 1 to 10 nM and the EC50 [2] was 1 to 10 nM.
Work on `C=C(C)c1c(C(=O)N[C@H]2CCOc3ccccc32)cnn2c(-c3cc(F)cc(F)c3)c(C)nc12` [Compound 279, 3-(3,5-difluorophenyl)-N-[(4S)-3,4-dihydro-2H-1-benzopyran-4-yl]-2-methyl-8-(prop-1-en-2-yl)imidazo[1,2-b]pyridazine-7-carboxamide] yielded an EC50 [1] of 10 to 100 nM.
For `CC(C)c1c(C(=O)N[C@H]2CCOc3ccc(F)cc32)cnn2c(Cl)c(-c3cc(Cl)cc(Cl)c3)nc12` [Compound 304-0, 3-chloro-2-(3,5-dichlorophenyl)-N-[(4S)-6-fluoro-3,4-dihydro-2H-1-benzopyran-4-yl]-8-isopropylimidazo[1,2-b]pyridazine-7-carboxamide], the EC50 [2] was 1000 to 10000 nM.
`Cc1nc2c(C(C)(C)C)c(C(=O)N[C@H]3CCOc4ccccc43)cnn2c1-c1cc(Cl)cc(Cl)c1` [Compound 306, 8-tert-butyl-3-(3,5-dichlorophenyl)-N-[(4S)-3,4-dihydro-2H-1-benzopyran-4-yl]-2-methylimidazo[1,2-b]pyridazine-7-carboxamide] showed an EC50 [1] of 1 to 10 nM and an EC50 [2] of less than 1 nM.
For `Cc1nc2c(C(C)C)c(NC(=O)[C@H]3CCOc4ccccc43)cnn2c1-c1cc(F)cc(F)c1` [Compound 320, (4S)—N-[3-(3,5-difluorophenyl)-8-isopropyl-2-methylimidazo[1,2-b]pyridazin-7-yl]-3,4-dihydro-2H-1-benzopyran-4-carboxamide], the EC50 [2] was 10 to 100 nM.
Work on `Cc1nc2c(C(C)C)c(NC(=O)[C@@H]3CCOc4ccccc43)cnn2c1-c1cc(F)cc(F)c1` [Compound 320-0, (4R)—N-[3-(3,5-difluorophenyl)-8-isopropyl-2-methylimidazo[1,2-b]pyridazin-7-yl]-3,4-dihydro-2H-1-benzopyran-4-carboxamide] yielded an EC50 [2] of 1000 to 10000 nM.
With `Cc1nc2c(C(C)C)c(C(=O)N[C@H]3CCOc4ccccc43)cnn2c1C(C)(C)C` [Compound 323, 3-tert-butyl-N-[(4S)-3,4-dihydro-2H-1-benzopyran-4-yl]-8-isopropyl-2-methylimidazo[1,2-b]pyridazine-7-carboxamide] the EC50 [1] was 10 to 100 nM and the EC50 [2] was 100 to 1000 nM.
`Cc1nc2c(C(C)C)c(C(=O)N[C@H]3CCOc4ccccc43)cnn2c1CC(C)C` [Compound 323-0, N-[(4S)-3,4-dihydro-2H-1-benzopyran-4-yl]-2-methyl-3-(2-methylpropyl)-8-(propan-2-yl)imidazo[1,2-b]pyridazine-7-carboxamide] showed an EC50 [1] of 10 to 100 nM and an EC50 [2] of 10 to 100 nM.
In the case of `Cc1nc2c(C(C)C)c(C(=O)N[C@H]3CCOc4ccccc43)cnn2c1N1CCCCC1` [Compound 324, N-[(4S)-3,4-dihydro-2H-1-benzopyran-4-yl]-8-isopropyl-2-methyl-3-(piperidin-1-yl)imidazo[1,2-b]pyridazine-7-carboxamide], the EC50 [1] is reported as less than 1 nM and the EC50 [2] is reported as 1 to 10 nM.
For `Cc1nc2c(C(C)C)c(C(=O)N[C@H]3CCOc4ccccc43)cnn2c1[C@H]1CC[C@H](C(F)(F)F)CC1` [Compound 326, N-[(4S)-3,4-dihydro-2H-1-benzopyran-4-yl]-8-isopropyl-2-methyl-3-[(1r,4r)-4-(trifluoromethyl)cyclohexyl]imidazo[1,2-b]pyridazine-7-carboxamide], the EC50 [2] was 10 to 100 nM.
`Cc1nc2c(C(C)C)c(C(=O)N[C@H]3CCOc4ccccc43)cnn2c1[C@H]1CC[C@@H](C(F)(F)F)CC1` [Compound 326-0, N—((S)-chroman-4-yl)-8-isopropyl-2-methyl-3-((1s,4R)-4-(trifluoromethyl)cyclohexyl)imidazo[1,2-b]pyridazine-7-carboxamide] gave an EC50 [1] of 10 to 100 nM and an EC50 [2] of 1 to 10 nM.
In the case of `Cc1nc2c(C(C)C)c(C(=O)N[C@H]3CCOc4ccccc43)cnn2c1C1=CCC(C(F)(F)F)CC1` (stereo partly drawn) [Compound 327, N-[(4S)-3,4-dihydro-2H-1-benzopyran-4-yl]-8-isopropyl-2-methyl-3-[4-(trifluoromethyl)cyclohex-1-en-1-yl]imidazo[1,2-b]pyridazine-7-carboxamide], the EC50 [2] is reported as 1 to 10 nM.
Work on `CC(C)c1c(C(=O)N[C@H]2CCOc3ccccc32)cnn2c(-c3cc(Cl)cc(Cl)c3)cnc12` [Compound 352, 3-(3,5-dichlorophenyl)-N-[(4S)-3,4-dihydro-2H-1-benzopyran-4-yl]-8-isopropylimidazo[1,2-b]pyridazine-7-carboxamide] yielded an EC50 [1] of 10 to 100 nM.
Work on `Cc1nc2c(C(C)C)c(C(=O)N[C@H]3CCOc4ccccc43)cnn2c1C#N` [Compound 366, 3-cyano-N-[(4S)-3,4-dihydro-2H-1-benzopyran-4-yl]-8-isopropyl-2-methylimidazo[1,2-b]pyridazine-7-carboxamide] yielded an EC50 [2] of 1000 to 10000 nM.
`O=C(N[C@H]1CCOc2ccccc21)c1cnn2c(-c3cc(Cl)cc(Cl)c3)c(C(F)(F)F)nc2c1N1CCOCC1` [Compound 450, 3-(3,5-dichlorophenyl)-N-[(4S)-3,4-dihydro-2H-1-benzopyran-4-yl]-8-(morpholin-4-yl)-2-(trifluoromethyl)imidazo[1,2-b]pyridazine-7-carboxamide] was tested, and the EC50 [1] was 100 to 1000 nM.
With `O=C(N[C@H]1CCOc2ccccc21)c1cnn2c(-c3cc(Cl)cc(Cl)c3)cnc2c1N1CCOCC1` [Compound 511, 3-(3,5-dichlorophenyl)-N-[(4S)-3,4-dihydro-2H-1-benzopyran-4-yl]-8-(morpholin-4-yl)imidazo[1,2-b]pyridazine-7-carboxamide] the EC50 [1] was 10 to 100 nM.
Work on `CC(=O)c1nc2c(C(C)C)c(C(=O)N[C@H]3CCOc4ccccc43)cnn2c1-c1cc(Cl)cc(Cl)c1` [Compound 558, 2-acetyl-3-(3,5-dichlorophenyl)-N-[(4S)-3,4-dihydro-2H-1-benzopyran-4-yl]-8-isopropylimidazo[1,2-b]pyridazine] yielded an EC50 [1] of 10 to 100 nM.
Compound `Cc1nc2c(C(C)(C)C)c(C(=O)NN3CCOc4ccccc43)cnn2c1-c1cc(Cl)cc(Cl)c1` [Compound 614, 8-tert-butyl-3-(3,5-dichlorophenyl)-N-(2,3-dihydro-1,4-benzoxazin-4-yl)-2-methylimidazo[1,2-b]pyridazine-7-carboxamide] has an EC50 [1] of 1 to 10 nM.
